Experimental data from paper PMC4492750, “The discovery of a selective and potent A2a agonist with extended lung retention” (Pharmacology Research & Perspectives, 2015).

Key:
[1] = biological target: T1, A3 (Homo sapiens, UniProt P0DMS8); test: Human A3 receptor pharmacology: GTPγ35[S] filter assay on membranes; format: biochemical; design: purchased Perkin Elmer ES-012-M400UA; conditions: average (SD)
T1 sequence (P0DMS8 1-318): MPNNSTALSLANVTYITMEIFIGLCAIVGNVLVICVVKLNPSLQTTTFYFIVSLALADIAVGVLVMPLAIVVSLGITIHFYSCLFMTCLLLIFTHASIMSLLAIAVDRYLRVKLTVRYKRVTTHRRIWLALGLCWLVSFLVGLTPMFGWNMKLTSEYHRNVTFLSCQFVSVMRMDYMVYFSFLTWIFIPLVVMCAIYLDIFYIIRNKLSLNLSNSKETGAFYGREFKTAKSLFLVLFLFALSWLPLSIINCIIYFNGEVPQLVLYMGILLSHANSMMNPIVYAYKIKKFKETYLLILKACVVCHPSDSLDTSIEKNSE
Protocol: (§1) • Human A2a and A2b receptor pharmacology: Chinese hamster ovary CHO-K1 cells stably expressing human A2a and A2b receptors were used to determine substances agonistic potency and intrinsic activity. […] The signal corresponding to adenosine at 100 μmol/L was used to define 100% intrinsic activity. • Human A3 receptor pharmacology: A3 receptor Gi coupling was measured by GTPγ ^35[S] filter assay at serial dilutions of compound using membranes from Perkin-Elmer. The signal corresponding to the maximal response of NECA at 100 μmol/L was set to 100% intrinsic activity. • Lipopolysaccharide (LPS)-induced TNFα production in primary human peripheral blood mononuclear cells (hTNFα PBMC) and rat mononuclears (rTNFα splenocytes): Human PBMC and rat mononuclear spleen cells were incubated with serial dilutions of compound and stimulated with LPS.
A3 receptor Gi coupling was measured by GTPγ ^35[S] filter assay using membrane from Perkin Elmer (ES-012-M400UA). Membranes (7.5μg/ml final concentration) were incubated with substances in serial dilutions (50mM Hepes, pH 7.4, 5mM MgCl2, 100mM NaCl, 0.01% BSA, 100μM DTT and 25μM GDP) including 1nM of GTPγ ^35[S] (Perkin Elmer - NEG030H) for 2h in room temperature in the assay plate (Corning – 3365). […] After adding 50µl scintillant/well, sealed plates were counted. […]

[2] = Lipophilicity (LogD), shake flask; format: physicochemical; conditions: 1-octanol / phosphate buffer, octanol-water, phosphate buffer pH 7.4
Protocol: as §1
The octanol-water partition coefficient (LogD) was measured using the shake flask method. 600µL of 1-octanol was added to a vial with 6µL of 10mM DMSO-solution of the test compound. 600µL of 10mM sodium phosphate buffer adjusted to pH 7.4 was added and equilibrium was performed by vigorous shaking for ten minutes with an Eppendorf mixer. The phases were separated by centrifugation. The samples were analysed by HPLC with UV-detection at 254nm.

[3] = In vivo pharmacokinetics in rats (i.v., oral, intratracheal)
Protocol: Rat PK was determined after an i.v. dose of 0.1μmol/kg (approximately 50μg/kg, 1ml/kg, TEG:H2O 50:50) given via a catheter in vena jugularis. The PK after oral administration was performed at a dose of 6μmol/kg (approximately 3mg/kg, 4ml/kg, 0.5% HPMC) given by gavage. Intratracheal PK was determined at 0.03 to 0.6μmol/kg (17 to 300μg/kg, 1ml/kg, in a vehicle containing sodium chloride (8.5mg/ml), EDTA (0.1mg/ml), citric acid (0.15mg/ml), sodium citrate (0.5mg/ml) and polysorbate 80 (0.2mg/mL) in purified water). The i.t. dose was given to anaesthetized (isofluran) rats, positioned at approximately 30° angle (head up) and the compound was administered in the trachea using a modified metal cannula. Rats were put back in their cages while regaining consciousness. Serial blood sampling of 100 to 200µl was performed after i.v. and p.o. dosing at pre-defined timepoints. Blood was mixed 1:4 with purified water containing heparin (10 to 30U/ml) in order to haemolyse the blood cells, and then placed in a 96-well plate and stored at –70°C until analysed. The dilution factor was accounted for in the data analysis. After i.t. dosing, animals were euthanized with isoflurane or pentobarbital at defined timepoints after dosing, blood samples taken from the vena jugularis or arteria carotis, handled and stored as described above. The rats were bled to drain as much blood as possible from the lungs. The lungs including the trachea were carefully dissected out with all non-relevant tissue removed, placed in pre-weighed vials and weighed. The lung vials were stored at –70°C until analyzed.
Lung tissue was frozen in liquid nitrogen and homogenised using a CryoPrep pneumatic hammer. The homogenisation of the tissue and the extraction of the compound were done in 4ml Ringer solution with an Adaptive Focused Acoustic Instrument. 50µl of the supernatant was transferred to a 96-well plate. All lung, blood and plasma samples were analysed by LC-MS/MS using a selective and sensitive method. Peak areas were used in comparison to those produced by the standard curve to determine parent compound concentrations. Homogenate concentrations were adjusted to account for the sample dilutions to give tissue concentrations.

[4] = test system: LPS-induced TNFα production in human PBMC; test: LPS-induced TNFα production in primary human PBMC (hTNFα PBMC); format: cell-based
Protocol: as §1
Procedures and assays were run in R10 buffer (RPMI 1640 Medium supplemented with GlutaMAX™ and HEPES (GIBCO-BRL), 10% fetal calf serum, penicillin and streptomycin (each 5000IU/ml)). Human PBMC were purified from heparinised blood by Ficoll separation (Ficoll, Amersham Pharmacia Biotech AB, Cat: 17-1440-03, Lot: 312170) and rat mononuclear cells were collected after rat spleen perfusion. Both cell preparations were followed by hypotonic lysis of residual erythrocytes. Serial dilutions of compounds were pre-incubated with 200 000 cells/well (96-well plate) for 45min in 37 °C (190µl). Cells were stimulated by 10µl LPS (final concentration 0.5ng/ml human and 150ng/ml rat; SIGMA Cat: L-4516, Lot: 104K4036) for 18h at 37 °C. TNFα release was measured by ELISA (^TmR&D Systems plates) according to the manufacturer’s instructions in cell free supernatant.

Structure (SMILES): CCNC(=O)[C@H]1O[C@@H](n2cnc3c(NC(CC)CC)nc(NCCNC(=O)Nc4cc[n+](C)cc4)nc32)[C@H](O)[C@@H]1O [Compound 2, (2S,3S,4R,5R)-N-ethyl-5-[6-(1-ethylpropylamino)-2-[2-[(1-methylpyridin-1-ium-4-yl)carbamoylamino]ethylamino]purin-9-yl]-3,4-dihydroxy-tetrahydrofuran-2-carboxamide]
- EC50 [1]: 6600 nM
- logD at 10 min [2]: < -1
- Increase of rat lung t½ in comparison with UK-432,097 ([3]; i.t.): 13 fold
- Rat blood clearance ([3]; i.v., mean of n = 3): 19 mL/min per kg
- half-life ([3]; lung, inhaled or intranasal, rat, intratracheal dosing, n = 2/time point, read-out: Lung t½ (terminal half-life in lung) (converted)): 53 h
- Kp at 24 h ([3]; other: intratracheal (i.t.), rat, i.t., ratio of lung concentration 24 h after dose to blood Cmax after same dose, read-out: Lung/blood split): 460
- Percentage of dose remaining in lung at 24 h ([3]; rat, single i.t. dose (17 and 20 μmol/kg for compounds 2 and 3 as printed in Fig. 5), 24 h): 28%
- bioavailability ([3]; whole blood, 6 umol/kg, rat, oral, mean of n = 3, read-out: Rat oral F (bioavailability)): 0.3%
- EC50 ([4]; Homo sapiens, PBMC, read-out: EC50, inhibition of LPS stimulated TNFα release in human PBMC): 0.5 nM
- IC50 ([4]; LPS-stimulated TNFα release, human PBMC, average (SD)): 0.5 nM
- Emax ([4]; LPS-stimulated TNFα release, human PBMC, average (SD), read-out: Human TNFα PBMC Intrinsic activity): 72.4%
